What was measured:
experimental ICH = experiment: hemorrhagic areas of brains of normoglycemic and hyperglycemic rats with experimental ICH treated with AZA; assay type: in vivo, Wistar rats
Description: (§1) In the hyperglycemia experiment, six Wistar rats are applied. Regarding each rat, hyperglycemia is induced by a single intraperitoneal injection of a buffer solution of streptozotocin (STZ) in 31 mM citrate and 39 mM sodium phosphate at 70 mg/kg body weight after an overnight fast. On the other hand, control rats receive an intraperitoneal injection of buffer vehicle. On day 3 after STZ treatment, whole blood of the rats is obtained and the glucose levels thereof are measured. Blood glucose level of ≥250 mg/dL was chosen as hyperglycemia, whereas rats were used as normoglycemia, defined as a blood glucose level of <100 mg/dL.
(§2) Then in the intracerebral hemorrhage experiment, each hyperglycemic or normoglycemic rat is anesthetized with an intraperitoneal injection of 50 mg/kg pentobarbital. Next, a needle is introduced through a burr hole into the striatum, and the needle is then removed, with the burr hole sealed with bone wax and the wound sutured. After a period of time, AZA is administered orally or by gastric lavage at 5 mg/kg in normal saline. Blood of the rats are sampled on days 1, 4, and 7 post-induction of ICH for testing the glucose level thereof.
Experiment 2: comparing the hemorrhagic areas of normoglycemic and hyperglycemic rats treated with AZA.

AQP4 = experiment: expression of AQP4 in brain tissues of normoglycemic and hyperglycemic rats with experimental ICH, immunohistochemistry; assay type: in vivo, Wistar rats
Description: as §1, §2
Experiment 3: determining the expression of AQP4 in normoglycemic and hyperglycemic rats.
The differential expressions of AQP4 in normoglycemic and hyperglycemic rats are detected by AQP4 autoantibody by Immunohistochemistry. The effect of AZA influencing the expression of AQP4 are tested.

[1] = hyperglycemic rats treated with AZA, day 1
[2] = hyperglycemic rats treated with AZA, day 4
[3] = hyperglycemic rats treated with AZA, day 7
[4] = normoglycemic rats treated with AZA, day 1
[5] = normoglycemic rats treated with AZA, day 4
[6] = normoglycemic rats treated with AZA, day 7

In the case of CC(=O)Nc1nnc(S(N)(=O)=O)s1 [AZA, acetazolamide], the “hemorrhagic areas, change in words” value (experimental ICH; both normoglycemic and hyperglycemic rats treated with AZA) is reported as “significant decrease”, the “hemorrhagic areas square measure of rats (%)” value (experimental ICH; [1]) is reported as 2.08 ± 0.02% and the “hemorrhagic areas square measure of rats (%)” value (experimental ICH; [2]) is reported as 0.91 ± 0.13%. The “hemorrhagic areas square measure of rats (%)” value (experimental ICH; [3]) was 0.38 ± 0.10%, the “hemorrhagic areas square measure of rats (%)” value (experimental ICH; [4]) was 6.00 ± 0.05% and the “hemorrhagic areas square measure of rats (%)” value (experimental ICH; [5]) was 2.61 ± 0.17%. For the same compound, the “hemorrhagic areas square measure of rats (%)” value (experimental ICH; [6]) was 1.37 ± 0.05%, the “AQP4 expression, change in words” value (AQP4; hyperglycemic rats administered with AZA (5 mg/kg)) was “significant decrease” and the “the expression of AQP4” value (AQP4; [1]) was 15.67 ± 6.59. The “the expression of AQP4” value (AQP4; [2]) was 8.65 ± 4.53%, the “the expression of AQP4” value (AQP4; [3]) was 2.33 ± 3.83 and the “the expression of AQP4” value (AQP4; [4]) was 12.19 ± 2.75. The “the expression of AQP4” value (AQP4; [5]) was 18.56 ± 5.67 ^ and the “the expression of AQP4” value (AQP4; [6]) was 37.84 ± 6.53.

From US20190022072A1, “USAGE OF ACETAZOLAMIDE FOR TREATING ICH, PARTICULARLY HYPERGLYCEMIC ICH” (priority 2017, published 2019)
